Reference: PMC12751012, “Nanoscale Direct-to-Biology Optimization and Structural Insights into Selective S. aureus TrmD Inhibitors” (Journal of Medicinal Chemistry, 2025)
“Also recorded” adds a separate entry of the source. Read-outs that look alike come from different tables or passages of the source.

Legend:
human Trm5 = molecular target: T1, human Trm5 (Homo sapiens, UniProt Q32P41); assay: 3H-based MTase enzyme inhibition assay, Trm5; type: biochemical; details: 3H-based enzyme assay, screened at 30 μM
T1 construct: a truncated construct of Trm5 (aa 66–475), with flexible termini omitted; made in house; host or cells: E. coli Rosetta2 (DE3)
T1 sequence (Q32P41 66-475): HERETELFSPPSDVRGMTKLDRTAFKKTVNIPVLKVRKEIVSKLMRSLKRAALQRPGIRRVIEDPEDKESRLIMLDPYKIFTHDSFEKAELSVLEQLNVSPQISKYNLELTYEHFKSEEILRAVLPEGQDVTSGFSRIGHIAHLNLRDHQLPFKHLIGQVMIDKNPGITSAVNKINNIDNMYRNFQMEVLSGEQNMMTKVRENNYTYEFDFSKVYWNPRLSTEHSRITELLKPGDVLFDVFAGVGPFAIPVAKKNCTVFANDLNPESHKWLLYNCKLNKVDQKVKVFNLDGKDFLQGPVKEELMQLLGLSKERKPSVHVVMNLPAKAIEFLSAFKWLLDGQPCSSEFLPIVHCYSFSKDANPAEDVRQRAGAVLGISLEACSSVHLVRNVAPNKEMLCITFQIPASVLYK
Protocol: ^3H-based inhibition assays for TrmD S. aureus were performed in 50 mM HEPES, 5 mM MgCl2, 80 mM NaCl, 0.005% Tween-20, 1 mM DTT, pH 7.5 buffer; and for Trm5 in 100 mM Tris-HCl, 0.1 mM EDTA, 6 mM MgCl2, 100 mM KCl, 2 mM DTT, pH 7.4. The reaction mixture contained for S. aureus TrmD: 1 μM synthetic tRNA^Leu (Genscript, see above) and 100 nM S. aureus TrmD; For human Trm5:10 μM synthetic tRNA^Leu and 1.5 μM Trm5. Compounds were screened for S. aureus TrmD at 1 μM and for Trm5 at 30 μM. The enzymatic reactions were started by the addition of SAM as a mixture of ^3H-SAM (Hartmann Analytics, S. aureus TrmD: 0.5 μM, Trm5: 2 μM) and cold SAM (New England Biolabs, S. aureus TrmD: 0.5 μM, Trm5: 98 μM) to a final activity of 0.04 μCi μL^–1 (TrmD) or 0.16 μCi μL^–1 (Trm5). The reaction mixtures were incubated in duplicate for 60 min (TrmD)/30 min (Trm5) at 37 °C. As a negative control, the reaction mixture without the enzyme was used, and as a positive control, the reaction mixture without the test compound was used. After the enzyme incubation time, aliquots of 8 μL were taken from the reaction mixture and spotted on Whatman glass microfiber filters (GF/C, 25 mm). The tRNA was precipitated on the filters with 5% ice-cold TCA for 15 min. The filters were washed twice with 5% TCA at room temperature for 20 and 10 min, and once in EtOH for 10 min. After drying, the filters were transferred into scintillation vials with 3 mL of PerkinElmer Gold MV liquid scintillation cocktail. Scintillation was measured with a scintillation counter (TriCarb Liquid Scintillation Analyzer 4810TR; measurement time of 1 min).

S. aureus RN4220 = assay: Bacterial growth inhibition assay, S. aureus RN4220; type: cell-based, Staphylococcus aureus; details: for effect on S. aureus RN4220 growth: 1, 10 and 100 μM, 24 h growth curves; for MIC: Staphylococcus aureus, read-out: MIC S. aureus
Protocol: (§1) Compounds were dissolved in DMSO to a final concentration of 20 mM. To determine the compound’s activity against different bacteria, a bacterial culture (E. coli ATCC10536, S. aureus RN4220) was set up to an optical density at 600 nm (OD600) of 0.05 from an overnight culture in Mueller-Hinton broth (Carl Roth). The compound was added in different concentrations ranging from […] to 1 μM. DMSO concentration was constantly adjusted to be 1% in the final culture. Cultures of 200 μL were incubated for 24 h at 37 °C in flat-bottom 96-well polystyrene culture plates (Greiner) using a BioTek Synergy H1 plate reader. Plates were incubated under constant shaking, and absorbance at 600 nm was measured every 20 min. The experiment was performed in three biological replicates with three technical replicates each.

S. aureus TrmD = molecular target: T2, S. aureus TrmD (Staphylococcus aureus, UniProt Q2FZ43); assay: Fluorescence polarization (FP) assay, tracer 4, S. aureus TrmD; type: binding
T2 construct: made in house; host or cells: E. coli BL21
T2 sequence (Q2FZ43 1-245): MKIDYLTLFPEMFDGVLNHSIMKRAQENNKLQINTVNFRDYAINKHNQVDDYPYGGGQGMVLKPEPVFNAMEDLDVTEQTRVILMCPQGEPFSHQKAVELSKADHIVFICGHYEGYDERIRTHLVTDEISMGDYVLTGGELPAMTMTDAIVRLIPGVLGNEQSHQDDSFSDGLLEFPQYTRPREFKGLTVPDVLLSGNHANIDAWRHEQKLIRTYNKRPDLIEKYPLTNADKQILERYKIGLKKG
Protocol: To enable the screening of hundreds of nanomole-scale synthesized compounds, the implementation of a high-throughput-capable RNA methyltransferase (MTase) assay is considered fundamental. […] In this assay format, a fluorescent, SAM-pocket binding tracer can be displaced by the compound under investigation, and the resulting change in fluorescence polarization defines the read-out of the inhibitor compound’s affinity (Figure A).
Fluorescence polarization (FP) assays were performed as follows. The assays for H. influenzae TrmD have been described previously. All assays were conducted in technical triplicate using black 96-well half area plates. For the FP assays, a tracer (20 nM Cy5TPD for E. coli and H. influenzae TrmD, 10 nM tracer 4 for S. aureus TrmD) was mixed with the respective enzyme (2 μM E. coli TrmD, 2 μM H. influenzae TrmD, 500 nM S. aureus TrmD) in buffer (E. coli and H. influenzae TrmD: 50 mM HEPES, 500 mM NaCl, 5% Glycerol, pH 7.5, S. aureus TrmD: 40 mM Tris HCl, 100 mM NaCl, 10 mM MgCl2, 5% Glycerol, pH 7.5). The compounds were added in varying concentrations for K D-value determination. […] The Z-factor for tracer 4 was determined by measuring 48 replicates of the free tracer (positive controls, PC) and 48 replicates of a mixture of enzyme and tracer (negative controls, NC). The Z-factor is defined in terms of the means (μ) and standard deviations (σ) of the positive and negative controls and calculated as Z = 1–(3*(σnc + σpc)/(μnc–μpc)). […] Polarization values (mP) were determined from polarization-specific parallel and orthogonal fluorescence intensities. K D-values were calculated in GraphPad Prism 8.0.1 using the four-parameter Hill equation: y(% tracer bound) = bottom + ([ligand]-slope) × (top–bottom)/([ligand]-slope + K Dslope).

E. coli ATCC10536 = assay: Bacterial growth inhibition assay, E. coli ATCC10536; type: cell-based, Escherichia coli; details: for effect on E. coli growth: up to 100 μM, growth curves
Protocol: as §1

[1] = apparent affinity, purified compound, 500 nM TrmD, 10 nM tracer 4, read-out: KD S. aureus TrmD (FP displacement assay)

Row | Compound | IC50 (human Trm5) [nM] | effect on S. aureus RN4220 growth (S. aureus RN4220) | MIC (S. aureus RN4220; RN4220, 24 h) [µM] | Kd (S. aureus TrmD; [1]) [nM] | effect on E. coli growth (E. coli ATCC10536) | MIC (S. aureus RN4220; RN4220, 24 h (1440 min)) [µM] | Kd (S. aureus TrmD; chromatographically purified compound, read-out: KD S. aureus TrmD (FP displacement assay)) [nM] | S. aureus TrmD binding (FP) (S. aureus TrmD; up to 100 μM) | E. coli growth rate (E. coli ATCC10536; highest concentration (100 μM)) | Kd (S. aureus TrmD; KD S. aureus TrmD (FP displacement assay), apparent affinity, purified compound, 500 nM TrmD, 10 nM tracer 4) [nM]
1 | N#Cc1cccc(Cn2cc(-c3c[nH]c4nc[nH]c(=O)c34)nn2)c1 [Compound 8b, 3-((4-(4-Oxo-4,7-dihydro-3H-pyrrolo[2,3-d]pyrimidin-5-yl)-1H-1,2,3-triazol-1-yl)methyl)benzonitrile] | > 30000 | no pronounced effect on growth | > 100 | 1820 ± 130 | no pronounced effect on growth | – | – | – | – | –
2 | O=c1[nH]cnc2[nH]cc(-c3cn(CC4CCC5C(CC4)C5(F)F)nn3)c12 (stereo not shown) [Compound 8c, 5-(1-((8,8-Difluorobicyclo[5.1.0]octan-4-yl)methyl)-1H-1,2,3-triazol-4-yl)-3,7-dihydro-4H-pyrrolo[2,3-d]pyrimidin-4-one] | > 30000 | no pronounced effect on growth | – | 1050 ± 110 | no pronounced effect on growth | > 100 | – | – | – | –
3 | O=c1[nH]cnc2[nH]cc(-c3cn(Cc4ccc5ncccc5c4)nn3)c12 [Compound 8d, 5-(1-(Quinolin-6-ylmethyl)-1H-1,2,3-triazol-4-yl)-3,7-dihydro-4H-pyrrolo[2,3-d]pyrimidin-4-one] | > 30000 | no pronounced effect on growth | – | 720 ± 70 | no pronounced effect on growth | > 100 | 725 ± 75 | – | – | –
4 | N[C@@H]1CCC[C@@H]1Cn1cc(-c2c[nH]c3nc[nH]c(=O)c23)nn1 [Compound 8e, 5-(1-(((1R,2R)-2-Aminocyclopentyl)methyl)-1H-1,2,3-triazol-4-yl)-3,7-dihydro-4H-pyrrolo[2,3-d]pyrimidin-4-one] | > 30000 | no pronounced effect on growth | – | 1620 ± 240 | no pronounced effect on growth | > 100 | – | – | – | –
5 | O=C(/N=C(\NCCn1cc(-c2c[nH]c3nc[nH]c(=O)c23)nn1)NC(=O)OCc1ccccc1)OCc1ccccc1 [Compound 8f] | > 30000 | significant reduction in S. aureus growth; also recorded: significant effect on S. aureus bacteria in lower concentrations | – | > 100000 | no significant growth inhibition | 12.5 | – | no S. aureus TrmD binding | slight increase | –
6 | CC(C)(C)OC(=O)/N=C(\NCCn1cc(-c2c[nH]c3nc[nH]c(=O)c23)nn1)NC(=O)OC(C)(C)C [Compound 8g] | > 30000 | – | – | 19800 | no significant growth inhibition | > 100 | – | – | – | –
7 | NC(N)=NCCn1cc(-c2c[nH]c3nc[nH]c(=O)c23)nn1 [Compound 8h] | > 30000 | – | – | – | – | – | – | – | – | 2480 ± 210
